Experimental data: PubChem BioAssay AID1645868 (Buhrlage Lab, Dana-Farber Cancer Institute and Novartis …, 2021)
Active and inactive are the calls of the source.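 The calls were made as follows: active = maximal percent inhibition of the deubiquitinase OTUD3 of at least 30% across the tested doses; inactive = the rest.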

Biological target: OTU domain-containing protein 3 (Homo sapiens) (UniProt Q5T2D3)
Experiment: Validation of screening hits, potency titration, in vitro enzymatic, OTU domain-containing protein 3 DUB inhibitors (AID 1645868)
Conditions: purified OTUD3, ubiquitin-rhodamine cleavage fluorescence, 2 h

Sequence of OTU domain-containing protein 3 (Homo sapiens) (Q5T2D3 whole entry, looked up, the tested form may be a part): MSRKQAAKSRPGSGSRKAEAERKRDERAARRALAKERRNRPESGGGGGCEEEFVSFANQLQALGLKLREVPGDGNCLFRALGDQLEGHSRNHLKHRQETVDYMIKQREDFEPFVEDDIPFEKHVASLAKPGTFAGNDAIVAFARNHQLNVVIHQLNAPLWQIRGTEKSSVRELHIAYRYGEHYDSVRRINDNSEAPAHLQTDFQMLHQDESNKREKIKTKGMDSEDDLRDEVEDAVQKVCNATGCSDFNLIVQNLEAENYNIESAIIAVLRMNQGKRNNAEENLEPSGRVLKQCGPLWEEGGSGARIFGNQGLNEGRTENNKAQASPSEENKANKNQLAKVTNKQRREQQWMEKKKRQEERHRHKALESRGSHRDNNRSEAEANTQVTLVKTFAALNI

SMILES | IC50
CCCn1cc(C(=O)N2CCC3(CC2)CC2(CO3)Nc3ccccc3-n3cccc32)c(C)n1 (stereo unspecified) | > 50 µM (inactive)
O=C(CN1CCCCC1)Nc1nnc(-c2ccc([N+](=O)[O-])cc2)s1 | 18.9 µM
Cc1cccc(COc2ccc(C3SCC(=O)Nc4n[nH]c(C)c43)cc2)c1 (stereo unspecified) | 15.5 µM
O=C(Nc1cc(-c2cccnc2)no1)c1ccc(F)c(F)c1 | 31.4 µM
COc1c(Cl)ccc2c(=O)c3c(O)c4c5c(c3oc12)OCO[C@H]5[C@@H](OC)c1cc2c(c(O)c1-4)C(=O)N(C)[C@H](OC)[C@@H]2O | > 50 µM (inactive)
NS(=O)(=O)c1ccc(NS(=O)(=O)c2ccc(NC(=O)Nc3ccc(Cl)cc3)cc2)cc1 | 38.2 µM
COc1ccc(NC(=O)c2ccc(-n3nnnc3SC)cc2)cc1Cl | > 50 µM (inactive)
CCN(CC)C(=O)CN1CCCC(c2ncncc2-c2cc(C)no2)C1 (stereo unspecified) | > 50 µM (inactive)
Cc1ccc2nc(N3CCc4ccccc4C3)c3nncn3c2c1 | > 50 µM (inactive)
Cc1cc(-c2nnc(SCC(=O)Nc3ccc(Br)c(C)c3)n2N)n[nH]1 | 17.3 µM
Cc1cnc2nc3c(cc2c1)CN(S(=O)(=O)c1cc(F)ccc1C)CC3 | > 50 µM (inactive)
COc1cc(N)c(Cl)cc1C(=O)OCC(=O)c1ccc2c(c1)OCCO2 | > 50 µM (inactive)
Cc1ccc(OCCn2c(=N)n(C(C)C)c3ccccc32)cc1 | > 50 µM (inactive)
COc1ccc(OC)c(CCNC(=O)CCC2=NS(=O)(=O)c3ccc(C(F)(F)F)cc3N2)c1 | 29.2 µM
CCOc1ccc(NC(=O)COc2cccc(-n3cnnn3)c2)cc1 | > 50 µM (inactive)
CCn1ccc2c(cc(C(=O)Nc3ccccc3F)n2C)c1=O | > 50 µM (inactive)
COc1cccc(NC(=O)c2cnc3c(c2)c(=O)n(C)c(=O)n3C)c1 | 19.9 µM
Cc1ccc2c(Nc3ccc(CC(=O)O)cc3)c(C(=O)N3CCCC3)cnc2n1 | > 50 µM (inactive)
O=C(CCCn1c(=O)c2ccccc2n(CC(=O)NCc2ccccc2Cl)c1=O)NCc1ccc2c(c1)OCO2 | 3.31 µM
Cc1ccc2c(c1C)NC(=O)[C@]21[C@@H]2C(=O)N(c3cc(Cl)ccc3Cl)C(=O)[C@@H]2[C@@H]2CCCN21 | > 50 µM (inactive)
CC(C)NS(=O)(=O)c1cccc2c(NC(=O)C(Cc3ccccc3)NC(=O)c3ccccc3)cccc12 (stereo unspecified) | > 50 µM (inactive)
N#Cc1cn(CC(=O)N2CCc3ccccc32)c2ccccc12 | > 50 µM (inactive)
CCc1ccc(C(C)NC(=O)C2CCN(c3ccc4nncn4n3)CC2)cc1 (stereo unspecified) | > 50 µM (inactive)
Cc1c(-c2ccc(C#N)cc2)oc2ccc(Br)cc2c1=O | > 50 µM (inactive)

SMILES | IC50
Cc1ccc(-c2nc(Cn3nnc(-c4nc(-c5ccccn5)no4)c3C)c(C)o2)cc1 | > 50 µM (inactive)
Cc1cc(O)c(Oc2cc(C)cc(O)c2O)c(O)c1 | 16.8 µM
COC1=CC(=O)c2c(O)c(C)c(CC(C)=O)c(O)c2C1=O | > 50 µM (inactive)
Cc1ccc2c(=O)c3c([nH]c2c1C)CCN(CC(=O)NCc1ccc2c(c1)OCO2)C3 | > 50 µM (inactive)
N#Cc1cccc(S(=O)(=O)N2CCc3nc4ccccc4n3CC2)c1 | 28.3 µM
COc1ccc(C2SCC(=O)Nc3c2c(=O)[nH]n3C2CCCCC2)cc1 (stereo unspecified) | 23.3 µM
CCn1c(SCc2cccc(C)c2)nnc1-c1cnccn1 | > 50 µM (inactive)
Cc1ccc(NC(=O)c2sc(=S)n(CCc3ccccc3)c2N)cc1 | 18 µM
CCN(CC)c1nc(F)c2c(c1F)S(=O)(=O)CCN2Cc1ccccc1 | > 50 µM (inactive)
COc1ccc(-c2cc(N3CCC(NC(=O)c4ccccc4)C3)n[nH]2)cc1 (stereo unspecified) | 18.4 µM
Cc1cc(-n2c(C)cc(-c3csc(N)n3)c2C)no1 | > 50 µM (inactive)
O=C(Nc1cccc2ccccc12)C1CCCN(S(=O)(=O)Cc2ccccc2)C1 (stereo unspecified) | 40.5 µM
O=C1c2ccccc2NC2(C(=O)Nc3ccc(Br)cc32)N1c1ccccc1 (stereo unspecified) | > 50 µM (inactive)
CC1=C(c2ccc(C)c(C)c2)S(=O)(=O)NC1=NCC(=O)NCCc1ccc(C)cc1 | > 50 µM (inactive)
CCOc1ccc(NC(=O)Cn2cc(C(=O)c3ccc(Cl)cc3)c(=O)c3cc(OC)ccc32)cc1 | 4.68 µM
COc1ccc(C(=O)Nc2n[nH]c(C)c2-c2cccc(C)c2)c(OC)c1 | 28.7 µM
C=C1CCC2[C@](C)(CCC[C@]2(C)C(=O)OC)[C@H]1CCc1ccoc1/C=C/C(=O)O (stereo partly specified) | > 50 µM (inactive)
COc1ccc(Cl)cc1-n1nnc(C(=O)N2CCc3ccccc3C2)c1C | > 50 µM (inactive)
O=C(COC(=O)c1ccc(CN2CCCC2=O)cc1)c1ccc2c(c1)OCCO2 | > 50 µM (inactive)
O=C(Cn1c(=O)n(Cc2ccc3c(c2)OCO3)c(=O)c2ncccc21)c1ccc(Cl)cc1 | 33.9 µM
O=C1N(Cc2ccc(F)cc2)CCN1c1ccc(C(F)(F)F)cn1 | > 50 µM (inactive)
COc1ccc(NC(=O)COc2cc(CSc3ccccc3)ncc2OC)cc1 | > 50 µM (inactive)
O=C(CSc1nc2cc(C(F)(F)F)ccc2s1)NCC(=O)c1ccccc1 | 22 µM
Cc1nc2ccc(NC(=O)COc3ccccc3[N+](=O)[O-])cc2s1 | 19.9 µM

SMILES | IC50
FC(F)(F)c1cccc(Nc2nnc(-c3cccnc3)s2)c1 | > 50 µM (inactive)
CCOc1ccc(CCNC(=O)c2ccc3c(c2)N(CC)C(=O)c2ccccc2S3)cc1OCC | > 50 µM (inactive)
Cc1ccc2c(=O)c3c([nH]c2c1C)CCN(CC(=O)NCc1ccccc1)C3 | > 50 µM (inactive)
Cc1ccc2oc(=O)c(S(=O)(=O)N3CCCCC3)cc2c1 | 43.1 µM
O=S1(=O)CCN(Cc2ccccc2)c2c(F)nc(N3CCCCC3)c(F)c21 | > 50 µM (inactive)
O=C(Nc1ccc2c(c1)OCCO2)C1CCN(C(=O)c2cc(-c3cccnc3)n[nH]2)CC1 | > 50 µM (inactive)
Cc1ccc(-c2nc(Cn3cnc4ccccc4c3=O)cs2)cc1 | 18.9 µM
O=C(Nc1ccc2sccc2c1)c1ccc(F)cc1 | > 50 µM (inactive)
Cc1ccc(C(=O)Nc2cc3c4c(c2)CC(=O)N4CCC3)cc1 | > 50 µM (inactive)
O=C(NC1CCN(c2nc(-c3cccnc3)nc3ccccc23)CC1)c1cccnc1 | > 50 µM (inactive)
Cc1nc(SCC(=O)Nc2cc(Cl)ccc2C)c2oc3ccccc3c2n1 | > 50 µM (inactive)
COc1ccc(CCC(=O)Nc2ncc(C)s2)cc1OC | > 50 µM (inactive)
CCOC(=O)[C@@H]1[C@@H](c2ccccc2)CN2CCN(C(=O)c3cnccn3)C[C@H]12 | > 50 µM (inactive)
O=C(CSc1ncnc2c1oc1ccccc12)NC1CCCC1 | 24.4 µM
Cc1ccc(CN2C(=O)c3cc4ccccc4n3CC2(C)C(=O)NCc2ccccc2)o1 (stereo unspecified) | > 50 µM (inactive)
CC(C)Cc1nc2sc3c(NCCN4CCOCC4)ncnc3c2c2c1CCC2 | > 50 µM (inactive)
CCCNC(=O)c1ccn(-c2ccc3ccc(-c4cnn(C)c4)cn23)n1 | > 50 µM (inactive)
O=S(=O)(c1ccc(F)cc1)N1CCCC1c1ccnc(Nc2cnccn2)n1 (stereo unspecified) | > 50 µM (inactive)
C[C@@H]1OC2=C(C(=O)c3cccc(O)c3C2=O)[C@H](O)[C@@H]1O | 4.45 µM
CCOC(=O)c1ccc(NC(=O)C[n+]2cc(-c3ccc(Cl)cc3)n3c2CCC3)cc1 | > 50 µM (inactive)
Cc1cc(=O)n(CC(=O)NCc2ccccc2F)c2c1c(C)nn2-c1ccccc1 | 28.6 µM
Cc1c(C(=O)NCc2cccc(Br)c2)oc2c1-c1[nH]ncc1CC2 | 48.2 µM
CCC(CC)n1[nH]c(=O)c2c1NC(=O)CSC2c1ccc2c(c1)OCO2 (stereo unspecified) | 19.3 µM
O=C(Nc1nnc2n1CCCS2)c1cccc(Cl)c1 | > 50 µM (inactive)

SMILES | IC50
CSc1nc2ncc3c(=O)n(CCc4ccccc4)ccc3n2n1 | > 50 µM (inactive)
O=C(Cn1cc(C(=O)C2CC2)c2ccccc21)NCc1ccc2c(c1)OCO2 | 31.2 µM
O=C(Nc1ccc(F)cc1F)c1csc(-c2ccccc2)n1 | 34.7 µM
CCOc1ccc2nc(NC(=O)C3CCN(S(=O)(=O)c4ccc5c(c4)CC(C)N5C(C)=O)CC3)sc2c1 (stereo unspecified) | > 50 µM (inactive)
O=C(NCc1ccc(CN2CCCC2)cc1)c1cc2ccccc2[nH]c1=O | > 50 µM (inactive)
Cc1ccccc1C(=O)c1ccc(C(=O)NC2CCCCCC2)[nH]1 | 20.7 µM
CC1CCCCN1c1nc(F)c2c(c1F)S(=O)(=O)CCN2Cc1ccccc1 (stereo unspecified) | > 50 µM (inactive)
Cc1ccn(-c2ccc(NC(=O)c3ccccc3Sc3ccccc3C#N)cc2)n1 | 44.5 µM
Cc1ccc2cccc(OCc3nnc(SCC(=O)c4ccc(Cl)cc4)n3C)c2n1 | 25.8 µM
COc1ccc(C2SCC(=O)Nc3c2c(=O)[nH]n3C2CCCCCC2)cc1 (stereo unspecified) | 30.1 µM
CNc1nc2c(c(=O)n1Cc1ccccc1)CN(C(=O)c1ccc(CN)cc1)CC2 | > 50 µM (inactive)
Cn1c2ccccc2c(=O)c2c(=O)n(Cc3ccccc3)c(-c3ccccc3F)nc21 | 0.33 µM
O=C(c1ccc2ncccc2c1)N1CCC2(C1)Nc1cccnc1NC2=NC1CCCC1 (stereo unspecified) | > 50 µM (inactive)
COc1cccc(OCCCn2c(C(C)NC(=O)c3ccco3)nc3ccccc32)c1 (stereo unspecified) | 32.8 µM
Cc1ccc(Cn2cc(-c3noc(-c4ccncc4)n3)nn2)cc1 | > 50 µM (inactive)
O=C(Nc1ccccc1Br)c1ccn(COc2ccccc2F)n1 | 46.7 µM
CN(C)c1cc(-n2cnc(C(=O)NCc3ccccc3Cl)c2)ncn1 | 30.4 µM
O=C1c2c(O)cccc2C2(Oc3cccc4cccc(c34)O2)C2OC12 (stereo unspecified) | 22.5 µM
CN=C(N)NCCC/C=C/CCCC(C)CC(C)C1OC(=O)/C=C/C(C)C(O)CC(O)C(C)C(O)CCC(C)C(O)CC2(O)OC(CC(OC(=O)CC(=O)O)CC(O)CC(O)C(C)C(O)/C=C/C1C)CC(O)C2O (stereo unspecified) | > 50 µM (inactive)
Cc1cccc(N2C(=O)/C(=C\c3ccc4c(c3)OCCO4)c3ccccc3C2=O)c1 | > 50 µM (inactive)
O=C(COc1ncnc2ccccc12)Nc1ccc2c(c1)OC1(CCCC1)O2 | 46.2 µM
O=C1N(Cc2ccc(F)cc2)CCN1c1ccc2c(c1)CCC2 | > 50 µM (inactive)
C=C(NC(=O)C(=C)NC(=O)c1csc(-c2ccc3c(n2)-c2csc(n2)-c2csc(n2)C(C(C)C2CO2)NC(=O)C(Cc2ccc(O)cc2)NC(=O)c2csc(n2)C(C(O)c2ccccc2)NC(=O)c2nc(sc2C)C(CC(N)=O)NC(=O)c2csc-3n2)n1)C(=O)O (stereo unspecified) | 43.6 µM
COc1ccc(NC(=O)C2CC(=O)Nc3cc(-c4ccccc4)nn32)cc1 (stereo unspecified) | 26.6 µM
